Measurements reported in patent publication US9617311B2, “Use of PEDF-derived polypeptides for promoting stem cells proliferation and wound healing” (Mackay Memorial Hospital, priority 2011, dated 2017).

Key:
LSCs in the limbus = assay: Limbal epithelium thickness and ΔNp63α-positive LSC level on day 5 post corneal wounding; format: in vivo, C57BL/6 mice; settings: day 5 post-wounding; for thickness of the limbus / limbal epithelia: compared with normal unwounded eye; for levels of ΔNp63α-positive LSCs in limbus: control ointment 38.9±2.8%, normal unwounded eye 74.8±6.3%
Excerpt: FIG. 4A provides histologic photographs (left panels, Hematoxylin and Eosin (H&E) staining, magnification, ×400), immunofluorescence microscopy photographs (middle panels, magnification, ×1000), and merged photographs (right panels); together, they illustrate layers of stratified limbal epithelium of mice at day 5 post-corneal injury according to the previous example of the present disclosure. […] Normal indicates uninjured eye. Cornea of normal eye that has no ΔNp63α-positive cell acted as ΔNp63α negative immunostaining control. FIG. 4B is a histogram illustrating levels of ΔNp63α-positive cells at limbus. Results of immunofluorescence were evaluated from 6 sections per mouse cornea, and 6 mice at each treatment. A labeling index was computed as the number of labeled cells divided by the total number of cells observed by a Hoechst 33258 fluorescent nuclear stain. P<0.005 versus control eye.
De-paraffinized tissue sections or 4% paraformaldehyde-fixed LSCs were blocked with 10% goat serum and 5% BSA in PBST (PBS containing 0.1% Tween-20) for 1 hour. Staining was done using primary antibodies against ΔNp63α (1:150 dilution), BrdU (1:250 dilution), and keratin-3 (1:250 dilution) at 37° C. for 2 hours, followed by incubation with the appropriate rhodamine- or FITC-conjugated donkey IgG (1:500 dilution) for 1 hour at RT. Nuclei were identified by counterstaining with Hoechst 33258 for 7 minutes. Images were captured using a Zeiss epifluorescence microscope with a CCD camera and photographs were taken by using the Axiovert software.
The experiments were performed using eight-week-old female C57BL/6 mice, and the procedures were approved by the Mackay Memorial Hospital Review Board for animal investigation. Animals were anesthetized by an intraperitoneal injection of a mixture of zoletil (6 mg/kg) and xylazine (3 mg/kg). One filter paper (0.9 mm diameter) soaked with 20% ethanol was placed on the central cornea of right eye for one minute and then irrigated extensively with PBS. Subsequently, mechanical epithelial scrape was performed using a punch under a dissection microscope to create a circular injury (2 mm diameter) at the entire corneal region of the mouse eye without encroaching the corneal stroma, limbus or conjunctiva.
Each synthetic peptide (the 39-mer, 34-mer, 29-mer, 25-mer, 20-mer, 18-mer, Mo 29-mer or Mo 20-mer) was reconstituted in DMSO as stock (5 mM) and mixed with TOBREX® eye ointment (Alcon; containing 0.3% Tobramycin and 0.5% Chlorobutanol) to a concentration 50 μM. In each of the treatment group (n=6-10), the right eye was treated with 20 μl eye ointment containing the synthetic peptide once a day after the scrape injury. In the control group (n=20), right eye was treated with 20 μl of eye ointment mixed with vehicle DMSO. Wound size was determined by staining with topical fluorescein (Fluor-I-Strip, Ayerst Laboratories, Philadelphia, Pa.) and photographed with a digital camera. The area of defect was quantified from the photographs using a computer-assisted image analyzer (Adobe Photoshop CS3 10.0) and was calculated as the percentage of residual epithelial defect at each time point/initial wound area.
On average, the levels of ΔNp63α-positive LSCs in limbus of normal unwounded eye is 74.8±6.3%; whereas the levels of ΔNp63α-positive LSCs in corneal wounded eyes treated with control, 29-mer, 20-mer, 18-mer and Mo 20-mer ointment were 38.9±2.8%, 77.0±4.1%, 73.1±8.6%, 39.4±2.6%, and 76.3±6.2% respectively (FIG. 4B). Taken together, 29-mer or 20-mer treatment can activate LSCs in vivo coincidently with more prominent corneal re-epithelialization than corneal regeneration by native progress.

[1] = system: basal cells of the hyper-proliferative epithelium; assay: Cell replication at basal layer of HE tissue at day 4 post skin wounding, BrdU immunohistochemistry; format: in vivo, C57L/B6 mice; settings: day 4 of skin ointment treatment; BrdU i.p. 3 hours before euthanasia; control wound 30.8±8.1%
Excerpt: FIGS. 9A and 9B illustrate histological analysis of cell replication at day 4 post-skin wounding. FIG. 9A provides photographs in which specimens were immunehistologically stained with BrdU to observe DNA replication (deep brown color) and counterstained with hematoxylin to observe nuclei. […] (Original magnification, ×200). FIG. 9B is a histogram illustrating numbers of BrdU-positive cells at basal layer of HE tissue. A labeling index (%) was computed as the number of labeled cells divided by the total number of cells at basal layer of HE tissue. *P<0.05 versus control wound.
2×10^5 limbal cells (the 1st passage) were seeded at a slide coated with FNC COATING MIX® solution (Athena Enzyme Systems, Baltimore, Md.) and incubated with a culture medium for one day. BrdU (final, 10 μM) was added to the culture for 2 hours. After being fixed with 4% paraformaldehyde, cells were exposed to cold methanol for 2 minutes, and then treated with 1 N HCl at RT for 1 hour before performing immunofluorescence. For animal study, BrdU was reconstituted in DMSO as stock (80 mM). 10 μl of BrdU mixed with 90 μl of PBS was intraperitoneally injected into mouse 3 hours prior to euthanasia. DNA synthesis was assessed by BrdU labeling with anti-BrdU antibodies.
To perform full-thickness skin excision, 8- to 10-week-old C57L/B6 mice were respectively anesthetized by an intraperitoneal injection of a mixture of zoletil (6 mg/kg) and xylazine (3 mg/kg). Two full-thickness skin excisional wounds, 4 mm in diameter were made on either side of the dorsal midline using Sklar Tru-Punch disposable biopsy punch (Sklar, West Chester, Pa., USA). In each treatment group (n=6), the skin wound was treated with 25 μl skin ointment (containing 50 μM synthetic peptide and 0.006 μl DMSO vehicle) once daily after the skin scraping. In the control group (n=6), skin wound was treated with 25 μl of skin ointment with equal concentration of DMSO. Each gram of the above skin ointment contains 5 mg neomycin sulfate and 12.5 mg Bacitracin Zinc. Wounds were left uncovered and harvested 4 and 7 days after injury. Mice were housed individually during the healing period.
To investigate whether skin resurfacing process, which involves cell replication, is accelerated by 29-mer, Mo 29-mer, 20-mer, or Mo 20-mer, wounds were treated with skin ointment containing 29-mer, Mo 29-mer, 20-mer, or Mo 20-mer for 4 days, and then mice were intraperitoneally injected with BrdU for further 3 hours before euthanized. […] This observation was consistent with the thicker HE tissue treated with 29-mer or 20-mer.

“SLGAEQRTESIIHRALYYDL [20-mer, synthetic peptide identical to residues 11-30 of the 39-mer]” was tested. Which “thickness of the limbus / limbal epithelia” value (LSCs in the limbus) did it give?
Its value is “returned to full-thickness of stratified layers”.

And the “levels of ΔNp63α-positive LSCs in limbus” value (LSCs in the limbus)?
The value was 73.1±8.6%.

And the “BrdU-positive cells at basal layer of HE tissue, labeling index” value (“BrdU-positive cells … labeling index” below) [1]?
The value was 53.1±6.5%.

Which results are given for EQRTESIIHRALYYDLIS [18-mer]?
thickness of the limbus / limbal epithelia (LSCs in the limbus): thinner; levels of ΔNp63α-positive LSCs in limbus (LSCs in the limbus): 39.4±2.6%

How did the “thickness of the limbus / limbal epithelia” value (LSCs in the limbus) turn out when “SLGAEQRTESIIHRALYYDLISSPDIHGT [29-mer, short synthetic PEDF peptide derived from the 39-mer]” was run?
The value was “returned to full-thickness of stratified layers”.

What about the “levels of ΔNp63α-positive LSCs in limbus” value (LSCs in the limbus) of the same sequence?
The value was 77.0±4.1%.

What about the “BrdU-positive cells … labeling index” value [1] of the same sequence?
The value was 47.9±5.0%.

For “SLGAEHRTESVIHRALYYDLITNPDIHST [Mo 29-mer, synthetic peptide derived from mouse PEDF]”, which “BrdU-positive cells … labeling index” value [1] is on record?
Its value is 52.5±2.5%.

How did the “thickness of the limbus / limbal epithelia” value (LSCs in the limbus) turn out when “SLGAEHRTESVIHRALYYDL [Mo 20-mer, synthetic peptide derived from mouse PEDF]” was run?
The value was “returned to full-thickness of stratified layers”.

And the “levels of ΔNp63α-positive LSCs in limbus” value (LSCs in the limbus)?
The value was 76.3±6.2%.

What about the “BrdU-positive cells … labeling index” value [1] of the same sequence?
The value was 49.2±4.3%.
